The results in this text go back to PubChem BioAssay AID1259411 (Chemical Carcinogenesis Research Information System (CCRIS), 2018).

Activity calls are given as the source filed them. The rule behind the calls is not given here.

In the data set the test system is rodent carcinogenicity bioassays, tumor incidence. The experiment in a line: CCRIS carcinogenicity studies. Particulars: Species: MOUSE, Strain/Sex: BDF1/FEMALE, Route: GAVAGE, Dose: 0. An outline of the steps: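 Archive of carcinogenicity, mutagenicity, tumor promotion and tumor inhibition results drawn from journals, NCI reports and other sources, expert-reviewed; covers 1985-2011 and is no longer updated.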

Regarding `CC(=O)O[C@@H]1[C@@H](O)[C@H]2O[C@@H]3C=C(C)C(=O)[C@@H](O)[C@]3(CO)[C@]1(C)[C@]21CO1`, the carcinogen call runs as follows: (3.5 MG/KG 1/4 WK FOR 1 YR (STUDY DURATION: 2 YR)) “inactive; negative”; (3.5 MG/KG 1/8 WK FOR 1 YR (STUDY DURATION: 2 YR)) “inactive; negative”.
